Reference: publication PMC8126888 (RSC Medicinal Chemistry, 2020)
Read-outs that look alike come from different tables or passages of the source.

What was measured:
in vitro [1] = settings: human
[2] = system: L. donovani MHOM/ET/67/L82 intracellular amastigotes; assay: microbe, parasite or virus in culture; settings: Leishmania donovani, read-out: L. donovani MHOM/ET/67/L82 intracellular amastigotes IC50
[3] = system: primary peritoneal mouse macrophages (PMM); assay: cells; settings: Macrophage, read-out: PMM IC50
[4] = system: Leishmania infantum MHOM/MA(BE)/67/ITMAP263 intracellular amastigotes; assay: microbe, parasite or virus in culture; settings: Macrophage, in Mus musculus
[5] = system: Trypanosoma cruzi, Tulahuen CL2, beta-galactosidase strain; assay: microbe, parasite or virus in culture; settings: MRC5, read-out: T. cruzi Tulahuen C4 (LacZ) IC50
in vitro [6] = settings: human, HepG2 cells
[7] = system: Leishmania infantum (MHOM/MA/67/ITMAP-263) intracellular amastigotes in THP-1; assay: microbe, parasite or virus in culture; settings: THP-1, read-out: L. infantum MHOM/MA/67/ITMAP263 intracellular amastigotes THP-1 cells IC50
physchem = settings: HPLC, Ascentis Express RP Amide column, pH 7.4, eLogD, experimental
in vitro [8] = settings: human, HFF-1 cells
in vitro [9] = settings: human, THP-1 cells differentiated with PMA
in vitro [10] = settings: human, HepG2 cells; remark: listed apart in the source
in vitro [11] = settings: PAMPA
in vitro [12] = settings: mouse
[13] = system: L. infantum MHOM/MA/67/ITMAP263 axenic Promastigotes; assay: microbe, parasite or virus in culture; settings: Leishmania infantum, read-out: L. infantum MHOM/MA/67/ITMAP263 axenic Promastigotes IC50
in vitro [14] = settings: human, HFF-1 cells; remark: listed apart in the source
in vitro [15] = settings: human; remark: listed apart in the source
[16] = system: axenic L. don. amastigotes (MHOM/SD/62/1S-CL2, LdBOB); assay: microbe, parasite or virus in culture; settings: Leishmania donovani
in vitro [17] = settings: PAMPA; remark: listed apart in the source
[18] = system: L. donovani MHOM/SD/62/1SCL2D intracellular amastigotes; assay: microbe, parasite or virus in culture; settings: Leishmania donovani, read-out: L. donovani MHOM/SD/62/1SCL2D intracellular amastigotes IC50
in vitro [19] = settings: human, HepG2 cells; remark: listed apart in the source
[20] = read-out: L. Inf. pIC50 (converted)
[21] = read-out: L. infantum MHOM/MA(BE)/67/ITMAP263 intracellular amastigotes IC50
[22] = read-out: L. Inf. pIC50, L. infantum intracellular amastigotes (converted)
[23] = read-out: L. infantum MHOM/MA(BE)/67/ITMAP263 intracellular amastigotes IC50, intracellular amastigotes
[24] = microsomes, pH 7.4, MLM CLint, mouse liver microsomes
[25] = read-out: L. Inf. pIC50, from L. infantum intracellular amastigote IC50 (converted)
[26] = microsomes, pH 7.4, HLM CLint, human liver microsomes
[27] = read-out: L. donovani MHOM/SD/62/1SCL2D axenic-cidal amastigotes IC50
[28] = s9, pH 7.4, Clint mouse mic., Fig. 2, mouse microsomes (S9 fractions)
[29] = read-out: L. don. pIC50 (converted)
[30] = read-out: L. inf. pIC50, intracellular amastigotes in PMM (converted), geometric mean of a minimum of two experiments ± standard error
[31] = s9, pH 7.4, Clint human mic., Fig. 2, human microsomes (S9 fractions)

SMILES | CC50 at 3 days (in vitro [1]) | IC50 [2] | IC50 [3] | IC50 [4, 20] | IC50 [4, 21] | IC50 [5] | CC50 (in vitro [6]) | IC50 [7] | chromatographic logD (physchem) | IC50 [4, 22] | IC50 [4, 23] | CC50 (in vitro [8]) | CC50 at 120 h (in vitro [9]) | microsomal CLint at 0.5 μM (in vitro [12]; [24]) | microsomal CLint at 0.5 μM (in vitro [15]; [26]) | further results
CCCOc1cc(C)c(C)cc1S(=O)(=O)NC1CCCC1 [DNDI0002550535] | > 32 µM | > 32 µM | > 32 µM | > 32 µM | > 32 µM | > 32 µM |  |  |  |  |  |  |  |  |  | 
O=S1(=O)c2ccccc2[C@H](O)[C@@H](Cc2ccccc2)N1Cc1ccccc1 [DNDI0003578378] | > 64 µM |  | > 64 µM |  |  | 7.67 µM | 63.9 µM | 19.5 µM | 4.2 | 8.91 µM | 8.88 µM | > 64 µM | 39.7 µM |  |  | 
COc1cc(S(=O)(=O)NCc2ccccc2)c(OC)cc1C [DNDI0002564850] | > 32 µM | > 32 µM | > 32 µM | > 32 µM | > 32 µM | > 32 µM |  |  |  |  |  |  |  |  |  | 
COc1ccc(Cl)cc1S(=O)(=O)N(Cc1ccccc1)C(Cc1ccccc1)C(N)=O (stereo not drawn) [DNDI0003370116] | 9.62 µM |  | 32 µM |  |  | 5.3 µM |  |  | 4.2 |  | 4.73 µM |  |  | 801 µL/min/mg | 752 µL/min/mg | CC50 (in vitro [10]): 39 µM; Papp (in vitro [11]): 5.17 ×10⁻⁶ cm/s; IC50 [13]: 30.4 µM; CC50 (in vitro [14]): 37.5 µM; IC50 [4, 25]: 4.68 µM
Cc1nnc2ccc(S(=O)(=O)N(Cc3cccc(F)c3)c3ccc4c(c3)OCO4)cn12 [DNDI0003321887] |  |  |  |  |  |  |  |  |  |  |  |  |  |  |  | IC50 [16, 27]: > 30 µM
O=C1c2ccccc2S(=O)(=O)N(Cc2ccccc2)C1Cc1ccccc1 (stereo not drawn) [DNDI0003370098] | 30.8 µM |  | > 64 µM |  |  | 9.38 µM |  |  | 3.6 |  | 11.7 µM |  |  | 1060 µL/min/mg | 141 µL/min/mg | CC50 (in vitro [10]): > 64 µM; Papp (in vitro [11]): 4.11 ×10⁻⁶ cm/s; IC50 [13]: > 64 µM; CC50 (in vitro [14]): > 64 µM; IC50 [4, 25]: 11.7 µM
CCCCCOc1cc(C)c(Cl)cc1S(=O)(=O)NCc1cccs1 [Compound 7] |  |  |  |  |  |  |  |  |  |  |  |  |  |  |  | microsomal CLint at 0.5 μM (in vitro [12]; [28]): 693 µL/min/mg; IC50 [16, 29]: 4.37 µM; IC50 [4, 30]: 0.447 µM; microsomal CLint at 0.5 μM (in vitro [15]; [31]): 624 µL/min/mg
O=S1(=O)c2ccccc2[C@H](O)[C@H](Cc2ccccc2)N1Cc1ccccc1 [DNDI0003578379] | 29.7 µM |  | > 64 µM |  |  | 6.7 µM | > 64 µM | 12.1 µM | 3.9 | 13.5 µM | 13.5 µM | 27 µM | 39.4 µM |  |  | 
COc1cc(S(=O)(=O)N(Cc2ccccc2)Cc2ccccc2)c(OC)cc1C [Compound 6] |  |  |  |  |  |  |  |  |  |  |  |  |  |  |  | microsomal CLint at 0.5 μM (in vitro [12]; [28]): 1080 µL/min/mg; IC50 [16, 29]: 1.51 µM; IC50 [4, 30]: 0.501 µM; microsomal CLint at 0.5 μM (in vitro [15]; [31]): 828 µL/min/mg
COc1ccc(S(N)(=O)=O)cc1S(=O)(=O)N(Cc1ccccc1)Cc1ccccc1 [DNDI0003578385] | 13.3 µM |  | > 64 µM |  |  | 4.66 µM | > 64 µM | 5.75 µM | 3.5 | 0.562 µM | 0.56 µM | 22.2 µM | > 64 µM | 366 µL/min/mg | 58 µL/min/mg | Papp (in vitro [17]): 3.76 ×10⁻⁶ cm/s
CCCN(Cc1ccc(F)cc1)S(=O)(=O)c1cc([S+](C)[O-])ccc1OC (stereo not drawn) [DNDI0003578384] | > 64 µM |  | > 64 µM |  |  | 38.5 µM | > 64 µM | > 64 µM | 3.1 | 11 µM | 11 µM | > 64 µM | > 64 µM | 437 µL/min/mg | 67 µL/min/mg | Papp (in vitro [17]): 18.6 ×10⁻⁶ cm/s
C[S+]([O-])c1c(Cl)ccc2c1S(=O)(=O)N(Cc1ccccc1)CCO2 (stereo not drawn) [DNDI0003578383] | > 64 µM |  | > 64 µM |  |  | 29.3 µM | > 64 µM | > 64 µM | 3 | 47.9 µM | 47.9 µM | > 64 µM | > 64 µM | 423 µL/min/mg | 33 µL/min/mg | Papp (in vitro [17]): 22 ×10⁻⁶ cm/s
CCCCCOc1cc(C)c(C)cc1S(=O)(=O)NC1CCCC1 [Compound 8] |  |  |  |  |  |  |  |  |  |  |  |  |  |  |  | microsomal CLint at 0.5 μM (in vitro [12]; [28]): 416 µL/min/mg; IC50 [16, 29]: 12 µM; IC50 [4, 30]: 0.589 µM; microsomal CLint at 0.5 μM (in vitro [15]; [31]): 567 µL/min/mg
CCCCCOc1cc(C)c(Cl)cc1S(=O)(=O)NCc1ccco1 [DNDI0002567970] | 11.7 µM | 4.76 µM | > 32 µM | 1.07 µM | 1.08 µM |  |  |  |  |  |  |  | > 50 µM |  |  | IC50 [18]: 48 µM; CC50 (in vitro [19]): > 50 µM; IC50 [16, 27]: 12 µM
COc1cc(S(=O)(=O)NC(C)c2ccccc2)c(OC)cc1C (stereo not drawn) [DNDI0002622495] | > 32 µM | > 32 µM | > 32 µM | > 32 µM | > 32 µM | > 32 µM |  |  |  |  |  |  |  |  |  | 
CCCCOc1cc(C)c(Cl)cc1S(=O)(=O)NCc1cccnc1 [DNDI0002558122] | > 32 µM | 25.4 µM | > 32 µM | 16.6 µM | 16.6 µM |  |  |  |  |  |  |  |  |  |  | 
COCCN(Cc1ccccc1)S(=O)(=O)c1c(OC)ccc(Cl)c1[S+](C)[O-] (stereo not drawn) [DNDI0003578380] | > 64 µM |  | > 64 µM |  |  | > 64 µM | > 64 µM | > 64 µM | 2.9 | 26.9 µM | 26.7 µM | > 64 µM | > 64 µM | 286 µL/min/mg | 85 µL/min/mg | Papp (in vitro [17]): 17.6 ×10⁻⁶ cm/s
COCCN(Cc1ccccc1)S(=O)(=O)c1c(OC)ccc(Cl)c1S(C)(=O)=O [DNDI0003578381] | > 64 µM |  | > 64 µM |  |  | > 64 µM | > 64 µM | > 64 µM | 2.6 | 51.3 µM | 50.8 µM | > 64 µM | > 64 µM | 176 µL/min/mg | 51 µL/min/mg | Papp (in vitro [17]): 14.6 ×10⁻⁶ cm/s
COc1ccc([S+](C)[O-])cc1S(=O)(=O)N(Cc1ccccc1)Cc1ccccc1 (stereo not drawn) [DNDI0003578382] | 21.3 µM |  | > 64 µM |  |  | 16.9 µM | > 64 µM | 11.5 µM | 3.6 | 0.589 µM | 0.59 µM | > 64 µM | > 64 µM | 397 µL/min/mg | 125 µL/min/mg | Papp (in vitro [17]): 14 ×10⁻⁶ cm/s
CCCOc1cc(C)c(Cl)cc1S(=O)(=O)NCc1cccs1 [DNDI0002572626] | > 32 µM | > 32 µM | > 32 µM | 25.1 µM | 25.4 µM | > 32 µM |  |  |  |  |  |  |  |  |  | 
CCCOc1cc(C)c(C)cc1S(=O)(=O)NCC1CCCO1 (stereo not drawn) [DNDI0002622936] | > 32 µM | > 32 µM | > 32 µM | 25.1 µM | 25.4 µM | > 32 µM |  |  |  |  |  |  |  |  |  | 
O=S(=O)(c1ccc2nncn2c1)N(Cc1ccccc1F)c1ccc2c(c1)OCO2 [DNDI0003321889] |  |  |  |  |  |  |  |  |  |  |  |  |  |  |  | IC50 [16, 27]: > 30 µM
CCCCOc1cc(C)c(Cl)cc1S(=O)(=O)NCc1cccs1 [DNDI0002620367] | 4.56 µM | 5.38 µM | > 32 µM | 0.794 µM | 0.79 µM |  |  |  |  |  |  |  | > 50 µM |  |  | IC50 [18]: 22 µM; CC50 (in vitro [19]): > 50 µM; IC50 [16, 27]: 11 µM
